Measured values taken from the supplement of paper PMC10307832.

Columns and labels:
Experiment in all cases: relative viability (nuclei count vs DMSO), 5 days (fraction); higher = more cells survive
LCLC-103H = system: LCLC-103H
Procedure, shortened: (§1)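 Lung cancer cell lines, seeded in 1536-well plates, were treated the following day by pin tool with a single drug or with five library-drug doses (not always all listed) in √10 steps on top of a fixed anchor-drug dose. Cells were fixed and nuclei stained in one step after 5 days, and nuclei were counted. Relative viability is the nuclei count for treated wells divided by that for vehicle wells, reported as medians of duplicate plates.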

EPLC-272H = system: EPLC-272H
Procedure, shortened: as §1

NCI-H2405 = system: NCI-H2405
Procedure, shortened: as §1

NCI-H2126 = system: NCI-H2126
Procedure, shortened: as §1

EMC-BAC-2 = system: EMC-BAC-2
Procedure, shortened: as §1

SW 900 = system: SW 900
Procedure, shortened: as §1

NCI-H3122 = system: NCI-H3122
Procedure, shortened: as §1

NCI-H1666 = system: NCI-H1666
Procedure, shortened: as §1

HCC-44 = system: HCC-44
Procedure, shortened: as §1

NCI-H23 = system: NCI-H23
Procedure, shortened: as §1

SK-LU-1 = system: SK-LU-1
Procedure, shortened: as §1

NCI-H1975 = system: NCI-H1975
Procedure, shortened: as §1

LK-2 = system: LK-2
Procedure, shortened: as §1

LU99A = system: LU99A
Procedure, shortened: as §1

SW 1573 = system: SW 1573
Procedure, shortened: as §1

RERF-LC-KJ = system: RERF-LC-KJ
Procedure, shortened: as §1

HCC-827 = system: HCC-827
Procedure, shortened: as §1

NCI-H1563 = system: NCI-H1563
Procedure, shortened: as §1

LXF-289 = system: LXF-289
Procedure, shortened: as §1

LOU-NH91 = system: LOU-NH91
Procedure, shortened: as §1

NCI-H2085 = system: NCI-H2085
Procedure, shortened: as §1

ChaGo-K-1 = system: ChaGo-K-1
Procedure, shortened: as §1

Clc1ccc(Nc2nnc(Cc3ccncc3)c3ccccc23)cc1 [Vatalanib] + CCNC(=O)c1noc(-c2cc(C(C)C)c(O)cc2O)c1-c1ccc(CN2CCOCC2)cc1 [Luminespib] (partner 0.01 µM)
relative viability (LCLC-103H; first compound 0.04 µM): 0.961
relative viability (LCLC-103H; first compound 0.1265 µM): 0.878
relative viability (LCLC-103H; first compound 0.4 µM): 0.967
relative viability (LCLC-103H; first compound 1.265 µM): 0.969
relative viability (LCLC-103H; first compound 4 µM): 1
relative viability (EPLC-272H; first compound 0.04 µM): 0.593
relative viability (EPLC-272H; first compound 0.1265 µM): 0.654
relative viability (EPLC-272H; first compound 0.4 µM): 0.26
relative viability (EPLC-272H; first compound 1.265 µM): 0.2
relative viability (EPLC-272H; first compound 4 µM): 0.296
relative viability (NCI-H2405; first compound 0.04 µM): 0.753
relative viability (NCI-H2405; first compound 0.1265 µM): 0.775
relative viability (NCI-H2405; first compound 1.265 µM): 0.594
relative viability (NCI-H2405; first compound 4 µM): 0.717
relative viability (NCI-H2126; first compound 0.04 µM): 0.925
relative viability (NCI-H2126; first compound 0.1265 µM): 0.864
relative viability (NCI-H2126; first compound 0.4 µM): 0.919
relative viability (NCI-H2126; first compound 1.265 µM): 0.94
relative viability (NCI-H2126; first compound 4 µM): 0.908
relative viability (EMC-BAC-2; first compound 0.04 µM): 1.16
relative viability (EMC-BAC-2; first compound 0.1265 µM): 1.13
relative viability (EMC-BAC-2; first compound 0.4 µM): 1.34
relative viability (EMC-BAC-2; first compound 1.265 µM): 1.09
relative viability (EMC-BAC-2; first compound 4 µM): 1.15
relative viability (SW 900; first compound 0.1265 µM): 0.178
relative viability (SW 900; first compound 0.4 µM): 0.224
relative viability (SW 900; first compound 1.265 µM): 0.166
relative viability (SW 900; first compound 4 µM): 0.192
relative viability (NCI-H3122; first compound 0.04 µM): 0.0962
relative viability (NCI-H3122; first compound 0.1265 µM): 0.0894
relative viability (NCI-H3122; first compound 0.4 µM): 0.0775
relative viability (NCI-H3122; first compound 1.265 µM): 0.0975
relative viability (NCI-H3122; first compound 4 µM): 0.0766
relative viability (NCI-H1666; first compound 0.04 µM): 0.986
relative viability (NCI-H1666; first compound 0.1265 µM): 0.991
relative viability (NCI-H1666; first compound 0.4 µM): 0.996
relative viability (NCI-H1666; first compound 1.265 µM): 1.01
relative viability (NCI-H1666; first compound 4 µM): 1.04
relative viability (HCC-44; first compound 0.04 µM): 1.24
relative viability (HCC-44; first compound 0.1265 µM): 1.01
relative viability (HCC-44; first compound 0.4 µM): 0.953
relative viability (HCC-44; first compound 1.265 µM): 0.927
relative viability (HCC-44; first compound 4 µM): 1.05
relative viability (NCI-H23; first compound 0.04 µM): 0.229
relative viability (NCI-H23; first compound 0.1265 µM): 0.213
relative viability (NCI-H23; first compound 0.4 µM): 0.227
relative viability (NCI-H23; first compound 1.265 µM): 0.19
relative viability (NCI-H23; first compound 4 µM): 0.205
relative viability (SK-LU-1; first compound 0.04 µM): 0.21
relative viability (SK-LU-1; first compound 0.1265 µM): 0.197
relative viability (SK-LU-1; first compound 0.4 µM): 0.241
relative viability (SK-LU-1; first compound 1.265 µM): 0.218
relative viability (SK-LU-1; first compound 4 µM): 0.232
relative viability (NCI-H1975; first compound 0.04 µM): 0.154
relative viability (NCI-H1975; first compound 0.1265 µM): 0.238
relative viability (NCI-H1975; first compound 0.4 µM): 0.237
relative viability (NCI-H1975; first compound 1.265 µM): 0.29
relative viability (NCI-H1975; first compound 4 µM): 0.177
relative viability (LK-2; first compound 0.04 µM): 0.185
relative viability (LK-2; first compound 0.1265 µM): 0.217
relative viability (LK-2; first compound 0.4 µM): 0.188
relative viability (LK-2; first compound 1.265 µM): 0.202
relative viability (LK-2; first compound 4 µM): 0.182
relative viability (LU99A; first compound 0.04 µM): 0.255
relative viability (LU99A; first compound 0.1265 µM): 0.238
relative viability (LU99A; first compound 0.4 µM): 0.264
relative viability (LU99A; first compound 1.265 µM): 0.286
relative viability (LU99A; first compound 4 µM): 0.246
relative viability (SW 1573; first compound 0.04 µM): 0.425
relative viability (SW 1573; first compound 0.1265 µM): 0.321
relative viability (SW 1573; first compound 0.4 µM): 0.302
relative viability (SW 1573; first compound 1.265 µM): 0.437
relative viability (SW 1573; first compound 4 µM): 0.264
relative viability (RERF-LC-KJ; first compound 0.04 µM): 1.17
relative viability (RERF-LC-KJ; first compound 0.1265 µM): 1.22
relative viability (RERF-LC-KJ; first compound 0.4 µM): 1.2
relative viability (RERF-LC-KJ; first compound 1.265 µM): 1.05
relative viability (RERF-LC-KJ; first compound 4 µM): 1.07
relative viability (HCC-827; first compound 0.04 µM): 0.53
relative viability (HCC-827; first compound 0.1265 µM): 0.614
relative viability (HCC-827; first compound 0.4 µM): 0.494
relative viability (HCC-827; first compound 1.265 µM): 0.638
relative viability (HCC-827; first compound 4 µM): 0.611
relative viability (NCI-H1563; first compound 0.04 µM): 0.493
relative viability (NCI-H1563; first compound 0.1265 µM): 0.539
relative viability (NCI-H1563; first compound 0.4 µM): 0.519
relative viability (NCI-H1563; first compound 1.265 µM): 0.495
relative viability (NCI-H1563; first compound 4 µM): 0.56
relative viability (LXF-289; first compound 0.04 µM): 0.703
relative viability (LXF-289; first compound 0.1265 µM): 0.634
relative viability (LXF-289; first compound 0.4 µM): 0.734
relative viability (LXF-289; first compound 1.265 µM): 0.623
relative viability (LXF-289; first compound 4 µM): 0.633
relative viability (LOU-NH91; first compound 0.04 µM): 0.371
relative viability (LOU-NH91; first compound 0.1265 µM): 0.331
relative viability (LOU-NH91; first compound 1.265 µM): 0.368
relative viability (LOU-NH91; first compound 4 µM): 0.315
relative viability (NCI-H2085; first compound 0.04 µM): 0.474
relative viability (NCI-H2085; first compound 0.1265 µM): 0.529
relative viability (NCI-H2085; first compound 0.4 µM): 0.464
relative viability (NCI-H2085; first compound 1.265 µM): 0.609
relative viability (NCI-H2085; first compound 4 µM): 0.469
relative viability (ChaGo-K-1; first compound 0.04 µM): 0.636
relative viability (ChaGo-K-1; first compound 0.1265 µM): 0.608
relative viability (ChaGo-K-1; first compound 0.4 µM): 0.671
relative viability (ChaGo-K-1; first compound 1.265 µM): 0.471
relative viability (ChaGo-K-1; first compound 4 µM): 0.45
